Measurements: patent US20250325529A1, “INHIBITORS OF FATTY ACID BINDING PROTEINS (FABPs), METHODS OF USE AND METHODS OF MAKING” (Celloram, inc., priority 2024, published 2025)
One block for each compound: values may come before it.

Experiments:
[1] = target: PPARα (Homo sapiens (Human), UniProt Q07869); assay: Transcriptional activation assay in COS7 cells, PPARα; type: cell-based; details: known agonist, 5 μM
Description: COS-7 were cultured in 6-well plates and co-transfected with either a luciferase reporter driven by 3 copies of a PPRE and expression vector for either PPARδ, PPARα or PPARγ together with a vector harboring cDNA for β-galactosidase, serving as a transfection control. To test whether FABP4 or FABP5 mediate activation of their cognate receptors PPARγ and PPARδ, respectively, cells were also co-transfected with a plasmid harboring sequence of either FABP4 or FABP5. 18 h post-transfection, cells were placed in a serum-free medium and treated with agonist/compound. 18 h. later, cells were lysed, luciferase activity was assayed (Promega, WI, USA) and corrected for transfection efficiency by the activity of β-galactosidase.
Transcriptional activation assays were carried out utilizing COS7 cells as described above.

[2] = target: FABP3 (Homo sapiens (Human), UniProt P05413); assay: Fluorescence (ANS) competition binding assay, FABP3; details: ANS displacement
Description: (§1) This example illustrates a two-step fluorescence binding assay study used to determine the binding affinity of the various inhibitor compounds disclosed herein with the various FABPs: FABP3, FABP4, FABP5 and FABP7. Further secondary screening studies were carried out for compounds with high binding affinities toward the FABPs and based on their ability to activate the nuclear receptors PPARα, PPARγ, or PPARδ.
(§2) Binding assays for FABP3, FABP4, FABP5 and FABP7 were carried out by fluorescence titrations. His-tagged FABPs were bacterially expressed in E. coli, purified using Ni Sepharose beads, and the equilibrium dissociation constants (Kd) that characterize their interactions with different inhibitor compounds were measured by fluorescence competition assays. The method entails two steps as described in e.g., Lin, Q. et al., “Ligand selectivity of the peroxisome proliferator-activated receptor alpha,” Biochemistry 38, 185-190, doi:10.1021/bi9816094 [pii](1999). In the first step, Kd for the association of the protein with the fluorescent fatty acid probe ANS was measured. Protein (2 μM) was titrated with ANS from a concentrated solution in DMSO. Ligand binding was monitored by following the increase in the fluorescence of the ligand upon binding to the protein, and Kd for the association of ANS with the each FABP was computed from titration curves as described in e.g., Norris, A. W. & Li, E., “Fluorometric titration of the CRABPs,” Methods Mol Biol 89, 123-139 (1998)). In the second step, Kds for binding of non-fluorescent ligands were measured by monitoring their ability to displace ANS in the binding pocket of the protein. Each FABP was precomplexed with ANS at 1:1 molar ratio and titrated with the different compounds whose binding was reflected by a decrease in probe fluorescence. Kds were extracted from the EC50 of the competition curve and the measured Kd for ANS.

[3] = target: FABP4 (Homo sapiens (Human), UniProt P15090); assay: Fluorescence (ANS) competition binding assay, FABP4; details: ANS displacement
Description: as §1, §2

[4] = target: FABP5 (Homo sapiens (Human), UniProt Q01469); assay: Fluorescence (ANS) competition binding assay, FABP5; details: ANS displacement
Description: as §1, §2

[5] = target: FABP7 (Homo sapiens (Human), UniProt O15540); assay: Fluorescence (ANS) competition binding assay, FABP7; details: ANS displacement
Description: as §1, §2

[6] = Single dose IV and PO PK study in C57BL/6 mice; type: in vivo; details: mouse, plasma; male C57BL/6 mice, single oral dose 10 mg/kg
Description: C57BL/6 male mice or Han Wistar rats were used, n=3 for each administration route and compound. Single dose of each compound was administered orally (PO, 10 mg/Kg) or by intravenous administration (IV, 1 mg/Kg). Following intravenous and oral administration, blood samples (ca 0.2 mL) were collected and compound amount was measured by HLPC. For IV group, blood samples were collected at 0.083, 0.25, 0.5, 1, 2, 4, 6, 8, and 24 hours post-dose. For PO group, blood samples were collected at 0.25, 0.5, 1, 2, 4, 6, 8, and 24 hours post-dose.

Sequence of FABP5 (Q01469 whole entry, species assumed): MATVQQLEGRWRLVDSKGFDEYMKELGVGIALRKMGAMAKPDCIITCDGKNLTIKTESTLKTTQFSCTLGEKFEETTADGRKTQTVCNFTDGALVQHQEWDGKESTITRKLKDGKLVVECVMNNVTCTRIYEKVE
Sequence of FABP3 (P05413 whole entry, species assumed): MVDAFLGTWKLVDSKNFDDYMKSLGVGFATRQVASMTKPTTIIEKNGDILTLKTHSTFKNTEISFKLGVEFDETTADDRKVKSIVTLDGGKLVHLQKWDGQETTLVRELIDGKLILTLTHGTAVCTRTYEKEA
Sequence of PPARα (Q07869 whole entry, species assumed): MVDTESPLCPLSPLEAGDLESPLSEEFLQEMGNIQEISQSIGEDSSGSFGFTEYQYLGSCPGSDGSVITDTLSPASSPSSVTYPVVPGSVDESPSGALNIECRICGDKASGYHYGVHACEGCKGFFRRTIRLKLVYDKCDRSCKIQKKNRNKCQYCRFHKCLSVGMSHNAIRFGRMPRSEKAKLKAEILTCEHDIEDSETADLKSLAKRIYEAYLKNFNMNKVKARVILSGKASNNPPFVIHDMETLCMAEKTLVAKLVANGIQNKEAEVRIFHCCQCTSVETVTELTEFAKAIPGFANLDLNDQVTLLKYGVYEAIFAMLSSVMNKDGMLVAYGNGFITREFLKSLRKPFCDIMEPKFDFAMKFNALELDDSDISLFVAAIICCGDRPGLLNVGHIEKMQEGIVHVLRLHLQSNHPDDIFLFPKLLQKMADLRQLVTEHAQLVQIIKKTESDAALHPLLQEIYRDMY
Sequence of FABP7 (O15540 whole entry, species assumed): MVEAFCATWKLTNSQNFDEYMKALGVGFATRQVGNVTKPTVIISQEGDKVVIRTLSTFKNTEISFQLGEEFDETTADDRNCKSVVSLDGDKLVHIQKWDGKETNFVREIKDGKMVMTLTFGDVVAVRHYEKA
Sequence of FABP4 (P15090 whole entry, species assumed): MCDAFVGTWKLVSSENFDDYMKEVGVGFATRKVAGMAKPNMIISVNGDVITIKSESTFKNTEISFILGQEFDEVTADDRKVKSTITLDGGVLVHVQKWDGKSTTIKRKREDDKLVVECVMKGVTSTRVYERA

Compound: Cc1cccc(Nc2cc(Cl)nc(SCC(=O)O)n2)c1C [Wy-14643, reference compound]
Activation of transcription by PPARα [1]: induced activation of their respective receptors

Kd [2]: 0.098 µM | Kd [3]: 0.096 µM | Kd [4]: 0.08 µM | Kd [5]: 0.344 µM
Compound: CC(C)Oc1nc(NC(=O)CSC(C)(C)C(=O)O)c(Cl)cc1Cl [PD153, 2-((2-((3,5-dichloro-6-isopropoxypyridin-2-yl)amino)-2-oxoethyl)thio)-2-methylpropanoic acid]

bioavailability [6]: 47%
Compound: CC(C)Oc1cc(NC(=O)CSCC(=O)O)c(Cl)cc1Cl [Compound B4, 2-((2-((2,4-dichloro-5-isopropoxyphenyl)amino)-2-oxoethyl)thio)acetic acid, reference compound]
